Source: paper PMC11980376, “Lactate dehydrogenase is the Achilles’ heel of Lyme disease bacterium Borreliella burgdorferi” (mBio, 2025)

Experiments:
BbLDH [1] = biological target: T1, BbLDH (Borreliella burgdorferi, UniProt O51114); test: Enzyme kinetics of inhibition with varying pyruvate as substrate, 0–100 µM inhibitor; type: biochemical; conditions: for type of inhibition for pyruvate substrate (Lineweaver–Burk plots): Fig. S7
T1 construct: we expressed and purified a full-length N-terminal His- and FLAG-tagged BB_0087 recombinant protein (rBB_0087); 10xHis (N); FLAG (N); made in house; host or cells: E. coli Rosetta-gami 2 (DE3)
T1 sequence (O51114 whole entry): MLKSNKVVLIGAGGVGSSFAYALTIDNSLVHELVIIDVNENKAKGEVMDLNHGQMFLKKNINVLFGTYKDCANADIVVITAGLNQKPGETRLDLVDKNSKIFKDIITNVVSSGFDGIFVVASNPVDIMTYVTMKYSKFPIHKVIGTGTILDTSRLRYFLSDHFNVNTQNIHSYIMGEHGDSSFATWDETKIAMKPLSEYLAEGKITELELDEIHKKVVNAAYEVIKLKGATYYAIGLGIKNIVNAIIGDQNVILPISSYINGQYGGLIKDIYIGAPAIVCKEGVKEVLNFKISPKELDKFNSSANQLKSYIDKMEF
Method: The inhibitory effect of gossypol and the four lead inhibitors of BbLDH was performed using 0–100 µM of inhibitors or an equal volume of DMSO vehicle in 50 mM Tris-HCl buffer (pH 7.0) containing 100 ng of BbLDH, 0.5 mM NADH, 2.4 mM pyruvate, and 3 mM FBP at 37°C. All experiments were repeated at least twice. The amount of NADH produced or consumed was extrapolated from the NADH standard curve and plotted in GraphPad Prism 10 (GraphPad Software, La Jolla, CA, USA) using Allosteric Sigmoidal mode to obtain the Vmax and Km values. Lineweaver–Burk plots were generated using the mean reciprocal values of substrates and velocities obtained from the inhibition studies.

HeLa cells = test: Cell viability, crystal violet assay, 72 h; type: cell-based, human
Method: (§1) Immortalized cervical carcinoma cells (HeLa) and TIGKs were purchased from ATCC. HeLa cells were cultured and maintained in Dulbecco’s Modified Eagle Medium with high glucose and supplemented with 10% FBS and 100 µg/mL of penicillin and streptomycin. TIGK cells were cultured in a serum-free keratinocyte growth medium (KGM; Lifeline Cell Technology, MD) as described previously ([56]). Cells were incubated at 37°C, 5% CO2 incubator.
(§2) To determine the toxicity of LDH inhibitors on eukaryotic cells, HeLa and TIGK cells were seeded onto a 96-well plate at 10^4 cells per well the day before drug treatment. Cell culture media were removed the next day and replaced with culture media containing the specified concentration of DMSO, gossypol, 45923, or 350085. Mock-treated wells were included for cell viability normalization purposes. Cells were incubated with inhibitors for 72 h. To determine the cell viability, the crystal violet assay was used as described ([57]). Briefly, cell culture media were decanted from the 96-well plate and washed once with water. A volume of 50 µL of 0.5% crystal violet staining solution (0.5 g crystal violet powder, 80 mL ddH2O, 20 mL methanol) were incubated for 20 min at room temperature (RT) with gentle shaking. Plates were washed 4–5 times by soaking in ddH2O followed by gentle tapping to remove any remaining liquid. Plates were air-dried at RT. A 200 µL of methanol was added to each well. The resulting plates were incubated for 20 min at RT with gentle shaking followed by optical density measurement at 570 nm (OD570) using a Varioskan LUX multimode microplate reader (Thermo Fisher Scientific). The OD570 of mock cells was set to 100% and the percentage of viable cells treated with inhibitors was determined by comparing the average OD570 values of treated wells to mock wells. The experiment was performed in triplicate wells with two technical replicates and two biological replicates. Two-way analysis of variance was used for statistical analysis with significant values of P < 0.05.

[2] = test system: telomerase immortalized gingival keratinocytes (TIGKs); test: Cell viability, crystal violet assay, 72 h; type: cell-based, human
Method: as §1, §2

BbLDH [3] = biological target: T1, BbLDH; test: Small compound library screening (Natural Products Set IV) for inhibition of BbLDH activity; type: biochemical; conditions: Extended Data Fig. 7A
Method: To identify potential novel LDH inhibitors against BbLDH, the Natural Products Set IV library containing 419 natural compounds selected from the DTP Open Repository collection was obtained from the National Cancer Institute (NCI). All compounds were dissolved in DMSO to a working stock solution of 10 mM. Primary screening was performed using a label-free HTS protocol ([54]) in 384-well plates. Buffer B (20 mM Tris pH 7.4, 0.005% Triton X-100, 0.005% BGG, 2 mM DTT) containing 10 nM BbLDH, 75 µM pyruvate, and 50 µM NADH was dispensed into each well containing pre-dispensed inhibitors to a final concentration of 10 µM in 50 µL working volume per well. Fluorescence was measured using an excitation wavelength of 340 nm and an emission wavelength of 482 nm. Readings were recorded every second over a total duration of 5 min. Gossypol and DMSO were included as positive and negative controls, respectively. Fluorescent signals were plotted over time for each compound and analyzed using linear regression to determine the slope of reduction compared to DMSO and gossypol. Twenty-three compounds with a reduced slope in comparison to DMSO were selected for a second round of screening.
For the secondary screening, a lactate dehydrogenase activity assay kit (Sigma Aldrich) was used to determine the inhibitory effect of selected small compounds on BbLDH activity. Reactions were performed following the manufacturer’s protocol using 10 and 25 µM of small compounds and 10 nM BbLDH per well. Gossypol and DMSO were included as positive and negative controls, respectively. Compounds that reduced the LDH activity of BbLDH compared to DMSO treatment wells were selected for further analysis.

B. burgdorferi = test: In vitro growth analysis of wild-type B. burgdorferi with inhibitors, Petroff-Hausser counting; type: cell-based, Borreliella burgdorferi; conditions: 0–300 µM tested, BSK-II medium, 34°C
Method: To measure the growth of the WT B31 A3-68 and 87^mut, 87^mut was first cultivated in the presence of 1 mM IPTG until the stationary phase along with the WT. Cells were harvested via centrifugation and washed with PBS to remove all traces of IPTG. A concentration of 1 × 10^5 cells/mL of WT or 87^mut were inoculated into 10 mL of fresh BSK-II and incubated at 34°C with or without 1 mM IPTG. Bacterial cells were enumerated daily until the cells entered the stationary growth phase (~1 × 10^8 cells/mL) using a Petroff-Hausser counting chamber, as previously described ([100]). At the end of the growth study, cultures were harvested for immunoblot analysis to detect the expression of BbLDH. Growth analyses were repeated in triplicates, and the results were expressed as the means ± standard errors of the means (SEM). To determine the growth inhibition of LDH inhibitors on B. burgdorferi, 10^5 cells/mL of stationary WT cultures were inoculated into a fresh 5 mL BSK-II medium containing the specified concentration of inhibitors. Equal volumes of DMSO were included as negative controls to rule out the inhibitory effect of DMSO on the growth of B. burgdorferi. Cells were maintained at 34°C with a 3.4% CO2 incubator, and cell numbers were enumerated every 2 days until the cells reached the stationary growth phase using the Petroff-Hausser counting chamber.

BB_0087 (BbLDH) = biological target: T2, BB_0087 (BbLDH) (Borreliella burgdorferi, UniProt O51114); test: Lactate dehydrogenase activity assay kit, NADH generation from lactate by recombinant BB_0087; type: biochemical; conditions: 100 µM gossypol; 50 ng purified recombinant protein
T2 construct: we expressed and purified a full-length N-terminal His- and FLAG-tagged BB_0087 recombinant protein (rBB_0087); 10xHis (N); FLAG (N); made in house; host or cells: E. coli Rosetta-gami 2 (DE3)
T2 sequence (O51114 whole entry): as above
Method: To establish the LDH activity of BbLDH, we first used a commercial lactate dehydrogenase activity assay kit (Sigma Aldrich, St. Louis, MO) to measure the ability of BbLDH to reduce NAD to NADH following the manufacturer’s instruction. Commercial LDH inhibitor gossypol (catalog # G8761, Sigma Aldrich) was dissolved in DMSO at a stock concentration of 100 mM. A concentration of 1 µg/µL of recombinant wild-type or H178A BbLDH stocks was diluted 1:20 in the LDH assay buffer to a final working volume of 400 µL per well. A 100 µM of gossypol or DMSO was added to selected wild-type BbLDH wells to determine the inhibitory effect of gossypol on BbLDH activity. Reactions were set up in triplicate wells along with NADH standards. The LDH activity was calculated using the formulation provided by the manufacturer.

BbLDH [4] = biological target: T1, BbLDH; test: Enzyme kinetics of inhibition, lactate to pyruvate reaction, NADH read at OD340; type: biochemical; conditions: Fig. 1F
Method: The enzyme kinetics of BbLDH, with substrates pyruvate or lactate, was monitored by the reduction or oxidation of NADH at OD340 as previously described ([92]) using a Varioskan LUX multimode microplate reader (Thermo Fisher Scientific, Rockford, IL) with minor modifications. Briefly, the conversion of pyruvate to lactate activity was performed at 37°C in 50 mM Tris-HCl buffer pH 7.0 containing 100 ng of BbLDH, 0.5 mM NADH, 2.4 mM pyruvate and with/without 3 mM FBP. The conversion of lactate to pyruvate activity was measured at 37°C in sodium bicarbonate buffer (pH 7.0) containing 100 ng of BbLDH, 1 mM NAD^+, 0–300 mM sodium L-lactate, with/without 3 mM FBP. The kinetic parameters of BbLDH were determined using 0–6.0 mM pyruvate, 0–1.0 mM NADH, 0–2.0 mM NAD^+, 50 mM Tris-HCl buffer, pH 5.0–10.0, or reaction temperature of 25°C, 30°C, and 37°C. All reactions were performed in 96-well plates with a final volume of 200 µL per well.
All experiments were repeated at least twice. The amount of NADH produced or consumed was extrapolated from the NADH standard curve and plotted in GraphPad Prism 10 (GraphPad Software, La Jolla, CA, USA) using Allosteric Sigmoidal mode to obtain the Vmax and Km values. Lineweaver–Burk plots were generated using the mean reciprocal values of substrates and velocities obtained from the inhibition studies.

Row | Structure (SMILES) | Ki (BbLDH [1]) | type of inhibition for pyruvate substrate (Lineweaver–Burk plots) (BbLDH [1]) | concentration at which growth inhibition of HeLa cells begins (HeLa cells) | concentration at which toxicity to TIGKs begins ([2]; crystal violet, non-cancerous cell line) | reduction in LDH activity (hit cutoff) (BbLDH [3]) | Ki (BbLDH [1]; varying pyruvate as substrate, 0.5 mM NADH, 3 mM FBP, pH 7.0, 37°C, Fig. 5, read-out: Ki) | concentration at which inhibitory effect on growth was observed (B. burgdorferi) | concentration at which toxicity to TIGKs begins ([2]; human) | LDH activity of BB_0087 (NADH generated from lactate) upon treatment (BB_0087 (BbLDH)) | Ki (BbLDH [4])
1 | COc1ccc2c(c1)O[C@H]1c3ccc(O)cc3OC[C@@H]21 (stereo in doubt) [compound 350085, Medicarpin] | 205 µM | competitive inhibitors | 5 µM | 20 µM | ≥ 75% | – | – | – | – | –
2 | CCC(C)(O)C(=O)OC1C(=O)OC2CC3C(C)=CC(O)C(O)C3(C)C3C4(O)OCC23C1C(C)C4O (stereo not drawn) [compound 14975] | 66 µM | competitive inhibitors | – | – | – | – | – | – | – | –
3 | COc1c2occc2cc2ccc(=O)oc12 [compound 45923, Methoxsalen] | – | competitive inhibitors | 10 µM | – | ≥ 75% | 54 µM | 100 µM | > 50 µM | – | –
4 | CCC(C)c1occ2c(O)c(C(=O)O)c(=O)cc-2c1C (stereo not drawn) [compound 114344] | 349 µM | competitive inhibitors | – | – | ≥ 75% | – | – | – | – | –
5 | Cc1cc2c(C(C)C)c(O)c(O)c(C=O)c2c(O)c1-c1c(C)cc2c(C(C)C)c(O)c(O)c(C=O)c2c1O [gossypol] | 36 µM | uncompetitive inhibition | – | – | – | – | 100 µM | – | completely abolished | 13 µM
